Measured values published in the supplement of paper PMC10307832.

Experiments:
Assay in all cases: relative viability (nuclei count vs DMSO), 5 days (fraction); higher = more cells survive
BMX-IN-1 + Pictilisib = compound: C=CC(=O)Nc1cc(-n2c(=O)ccc3cnc4ccc(-c5ccc(NS(C)(=O)=O)cc5)cc4c32)ccc1C [BMX-IN-1] + CS(=O)(=O)N1CCN(Cc2cc3nc(-c4cccc5[nH]ncc45)nc(N4CCOCC4)c3s2)CC1 [Pictilisib] (partner 1 µM)
Summary of the method: (§1)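 Cells from lung cancer lines were seeded into 1536-well plates and, one day later, dosed by pin tool. Treatments were either a single drug or a fixed dose of an anchor drug with five library-drug doses (not always all listed) in √10 steps. After 5 days, nuclei were stained in a one-step fixation (final 0.05% Triton X-100, 1% formaldehyde, 1 ug/ml Hoechst) and counted on 4× images, and relative viability is the treated-to-vehicle nuclei ratio, as the median of duplicate plates.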

Ibrutinib + Linsitinib = compound: C=CC(=O)N1CCC[C@@H](n2nc(-c3ccc(Oc4ccccc4)cc3)c3c(N)ncnc32)C1 [Ibrutinib] + C[C@]1(O)C[C@@H](c2nc(-c3ccc4ccc(-c5ccccc5)nc4c3)c3c(N)nccn32)C1 [Linsitinib] (partner 1 µM)
Summary of the method: as §1

PAC-1 + OSI-027 = compound: C=CCc1cccc(/C=N/NC(=O)CN2CCN(Cc3ccccc3)CC2)c1O [PAC-1] + COc1cccc2cc(-c3nc([C@H]4CC[C@H](C(=O)O)CC4)n4ncnc(N)c34)[nH]c12 [OSI-027] (partner 0.5 µM)
Summary of the method: as §1

BMX-IN-1 + Pemetrexed = compound: C=CC(=O)Nc1cc(-n2c(=O)ccc3cnc4ccc(-c5ccc(NS(C)(=O)=O)cc5)cc4c32)ccc1C [BMX-IN-1] + Nc1nc2[nH]cc(CCc3ccc(C(=O)N[C@@H](CCC(=O)O)C(=O)O)cc3)c2c(=O)[nH]1 [Pemetrexed] (partner 0.2 µM)
Summary of the method: as §1

Row | Cell Line | relative viability (BMX-IN-1 + Pictilisib; first compound 0.02 µM) | relative viability (BMX-IN-1 + Pictilisib; first compound 0.2 µM) | relative viability (BMX-IN-1 + Pictilisib; first compound 0.6325 µM) | relative viability (BMX-IN-1 + Pictilisib; first compound 2 µM) | relative viability (Ibrutinib + Linsitinib; first compound 0.005 µM) | relative viability (Ibrutinib + Linsitinib; first compound 0.01581 µM) | relative viability (Ibrutinib + Linsitinib; first compound 0.05 µM) | relative viability (Ibrutinib + Linsitinib; first compound 0.1581 µM) | relative viability (Ibrutinib + Linsitinib; first compound 0.5 µM) | relative viability (PAC-1 + OSI-027; first compound 0.02 µM) | relative viability (PAC-1 + OSI-027; first compound 0.06325 µM) | relative viability (PAC-1 + OSI-027; first compound 0.2 µM) | relative viability (PAC-1 + OSI-027; first compound 2 µM) | relative viability (BMX-IN-1 + Pemetrexed; first compound 0.02 µM) | relative viability (BMX-IN-1 + Pemetrexed; first compound 0.2 µM) | relative viability (BMX-IN-1 + Pemetrexed; first compound 0.6325 µM) | relative viability (BMX-IN-1 + Pemetrexed; first compound 2 µM)
1 | HCC-827 | 1.03 | 1.15 | 1.04 | 1.05 | 1.01 | 0.947 | 1.01 | 0.854 | 0.32 | 0.763 | 0.692 | 0.703 | 0.792 | 0.237 | 0.297 | 0.287 | 0.235
2 | HOP-62 | 0.639 | 0.761 | 0.929 | 0.688 | 0.761 | 0.771 | 0.979 | 1.17 | 1.07 | 0.836 | 0.814 | 0.782 | 0.892 | 0.267 | 0.364 | 0.342 | 0.223
3 | IA-LM | 0.337 | 0.403 | 0.427 | 0.386 | 0.397 | 0.658 | 0.453 | 0.512 | 0.56 | – | – | – | – | – | – | – | –
4 | LC-2-ad | 0.645 | 0.555 | 0.619 | 0.482 | 0.829 | 0.778 | 0.89 | 0.869 | 0.745 | 0.877 | 1.05 | 0.78 | 0.64 | 0.265 | 0.28 | 0.277 | 0.281
5 | LCLC-97TM1 | 0.189 | 0.197 | 0.274 | 0.207 | 0.179 | – | 0.175 | 0.2 | 0.169 | 0.436 | 0.536 | 0.453 | 0.449 | 0.142 | 0.191 | 0.195 | 0.2
6 | LCLC-103H | 0.636 | 0.612 | 0.684 | 0.609 | 1.28 | 1.16 | 1.09 | 1.1 | 1.03 | 0.45 | 0.467 | 0.436 | 0.559 | 0.444 | 0.546 | 0.467 | 0.418
7 | LK-2 | 0.8 | 0.696 | 0.543 | 0.59 | 0.422 | 0.7 | 0.552 | 0.377 | 0.528 | 0.186 | 0.195 | 0.208 | 0.206 | 0.163 | 0.256 | 0.254 | 0.225
8 | LOU-NH91 | – | 0.509 | 0.546 | 0.512 | 0.834 | 0.733 | 0.739 | 0.892 | 0.492 | 0.643 | 0.68 | 0.727 | 0.715 | – | 0.406 | 0.392 | 0.366
9 | LU99A | 0.309 | 0.382 | 0.39 | 0.301 | 0.504 | 0.51 | 0.497 | 0.54 | 0.521 | 0.303 | 0.314 | 0.257 | 0.3 | 0.198 | 0.226 | 0.183 | 0.141
10 | LXF-289 | 0.808 | 0.863 | 0.88 | 0.761 | 0.988 | 0.96 | 0.923 | 0.955 | 0.927 | 0.764 | 0.835 | 0.739 | 0.789 | 0.896 | 0.947 | 1.01 | 0.985
11 | NCI-H23 | 0.483 | 0.495 | 0.582 | 0.411 | 0.396 | 0.508 | 0.545 | 0.568 | 0.518 | 0.629 | 0.493 | 0.589 | 0.65 | 0.693 | 1.04 | 0.797 | 0.622
12 | NCI-H322M | 0.558 | 0.505 | 0.532 | 0.583 | 0.782 | 0.813 | 0.784 | 0.82 | 0.516 | 0.547 | 0.586 | 0.543 | 0.505 | 0.596 | 0.689 | 0.65 | 0.586
13 | NCI-H358 | 0.387 | 0.313 | 0.393 | 0.336 | 0.563 | 0.394 | 0.355 | 0.743 | 0.28 | 0.7 | 0.632 | 0.693 | 0.631 | 0.167 | 0.182 | 0.176 | 0.175
14 | NCI-H441 | 0.461 | 0.618 | 0.491 | 0.606 | 0.64 | 0.615 | 0.585 | 0.518 | 0.495 | 0.521 | 0.759 | 0.501 | 0.413 | 0.225 | 0.267 | 0.282 | 0.256
15 | NCI-H522 | – | – | – | – | – | – | – | – | – | 0.673 | 0.695 | 0.737 | 0.691 | 1 | 1.03 | 1.12 | 1.14
16 | NCI-H727 | 0.439 | 0.416 | 0.403 | 0.337 | 0.285 | 0.288 | 0.319 | 0.203 | 0.31 | 0.641 | 0.689 | 0.619 | 0.622 | – | – | – | –
17 | NCI-H1299 | 0.838 | 0.934 | 0.906 | 0.563 | 0.497 | 0.993 | 0.961 | 0.966 | 1.03 | – | – | – | – | – | – | – | –
18 | NCI-H1623 | – | – | – | – | – | – | – | – | – | 0.455 | 0.446 | 0.442 | 0.448 | – | – | – | –
19 | NCI-H1648 | – | – | – | – | – | – | – | – | – | 0.239 | 0.264 | 0.27 | 0.317 | 0.733 | 0.721 | 0.875 | 0.765
20 | NCI-H1650 | 0.776 | 0.675 | 0.705 | 0.548 | – | – | – | – | – | 0.569 | 0.614 | 0.55 | 0.612 | 0.354 | 0.354 | 0.541 | 0.325
21 | NCI-H1703 | 0.248 | 0.265 | 0.248 | 0.225 | 0.178 | 0.676 | 0.632 | 0.467 | 0.627 | – | – | – | – | – | – | – | –
22 | NCI-H2170 | 0.319 | 0.312 | 0.319 | 0.307 | – | – | – | – | – | 0.701 | 0.631 | 0.784 | 0.645 | 0.273 | 0.285 | 0.319 | 0.243
23 | NCI-H2342 | – | – | – | – | – | – | – | – | – | 0.653 | 0.574 | 0.65 | 0.682 | 0.815 | 0.802 | 0.97 | 0.796
24 | SW 900 | – | – | – | – | – | – | – | – | – | 0.69 | 0.828 | 0.572 | 0.496 | 0.529 | 0.5 | 0.485 | 0.425
